Here are results for 7 compounds from patent US20120283228A1, “2alpha-Methyl and 2beta-Methyl Analogs of 19,26-Dinor-1alpha,25-Dihydroxyvitamin D3 and Their Uses” (WISCONSIN ALUMNI RESEARCH FOUNDATION, priority 2011, published 2012).

The structures appear in SMILES notation. Entries after “also recorded” stand apart in the source; their conditions may differ. Read-outs that look alike come from different tables or passages of the source.

Assay [1] deals with 24-hydroxylase (24Ohase) gene promoter. Nature of the assay: In vitro transcription assay in ROS 17/2.8 (bone) cells, luciferase reporter. The assay is classed as cell-based. As to conditions: for EC50: ROS 17/2.8 cells, 24-hydroxylase promoter-luciferase, read-out: EC50, transcriptional activity in bone cells; for logs less transcriptional activity than 1α,25-dihydroxyvitamin D3 in bone cells / times less transcriptional activity than 1α,25-dihydroxyvitamin D3 in bone cells: less than 1,25(OH)2D3. The protocol: Transcription activity was measured in ROS 17/2.8 (bone) cells that were stably transfected with a 24-hydroxylase (24Ohase) gene promoter upstream of a luciferase reporter gene (Arbour et al., 1998). Cells were given a range of doses. Sixteen hours after dosing the cells were harvested and luciferase activities were measured using a luminometer.
RLU=relative luciferase units.
(In a reporter assay the amount or activity of a reporter protein is the signal.)

Assay [2] relates to Human promyelocytic leukemia (HL60) cells. Nature of the assay: HL-60 differentiation (nitro blue tetrazolium reduction). The assay is classed as cell-based. Particulars: for EC50: HL-60 cells, read-out: EC50, ability to promote HL-60 cell differentiation. The protocol: Serial dilutions were prepared so that a range of drug concentrations could be tested without changing the final concentration of ethanol (≦0.2%) present in the cell cultures.
Human promyelocytic leukemia (HL60) cells were grown in RPMI-1640 medium containing 10% fetal bovine serus. The cells were incubated at 37° C. in the presence of 5% CO2.
HL60 cells were plated at 1.2×10^5 cells/ml. Eighteen hours after plating, cells in duplicate were treated with drug. Four days later, the cells were harvested and a nitro blue tetrazolium reduction assay was performed (Collins et al., 1979; J. Ex. Med. 149:969-974). The percentage of differentiated cells was determined by counting a total of 200 cells and recording the number that contained intracellular black-blue formazan deposits Verification of differentiation to monocytic cells was determined by measuring phagocytic activity (data not shown).

In assay [3] the test system is vitamin D-deficient rats. Nature of the assay: Bone calcium mobilization (serum calcium). The assay is classed as in vivo, Sprague-Dawley rats. As to conditions: rats on low calcium diet (0.02%); for activity in mobilizing calcium from bone / serum calcium levels: all dosages tested; for times less potent than 1,25(OH)2D3 in bone (bone calcium mobilization): 4 ip doses; for mobilization of bone calcium at 7,020 pmol/day: 7,020 pmol/day for 4 consecutive days; for mobilization of bone calcium at 35,100 pmol/day: 35,100 pmol/day for 4 consecutive days. The protocol: (§1) Male, weanling Sprague-Dawley rats were placed on Diet 11 (0.47% Ca) diet +AEK for one week followed by Diet 11 (0.02% Ca) +AEK for 3 weeks. The rats were then switched to a diet containing 0.47% Ca for one week followed by two, weeks on a diet containing 0.02% Ca. Dose administration began during the last week on 0.02% calcium diet. Four consecutive ip doses were given approximately 24 hours apart. Twenty-four hours after the last dose, blood was collected from the severed neck and the concentration of serum calcium determined as a measure of bone calcium mobilization. The first 10 cm of the intestine was also collected for intestinal calcium transport analysis using the everted gut sac method.

For assay [4], the system named is vitamin D-deficient rats. Nature of the assay: Intestinal calcium transport (everted gut sac method). The assay is classed as in vivo, Sprague-Dawley rats. As for the experimental part:
as §1

Assay [5] addresses T1, full-length recombinant rat vitamin D receptor (Rattus norvegicus, UniProt P13053).
T1 sequence (P13053 1-423): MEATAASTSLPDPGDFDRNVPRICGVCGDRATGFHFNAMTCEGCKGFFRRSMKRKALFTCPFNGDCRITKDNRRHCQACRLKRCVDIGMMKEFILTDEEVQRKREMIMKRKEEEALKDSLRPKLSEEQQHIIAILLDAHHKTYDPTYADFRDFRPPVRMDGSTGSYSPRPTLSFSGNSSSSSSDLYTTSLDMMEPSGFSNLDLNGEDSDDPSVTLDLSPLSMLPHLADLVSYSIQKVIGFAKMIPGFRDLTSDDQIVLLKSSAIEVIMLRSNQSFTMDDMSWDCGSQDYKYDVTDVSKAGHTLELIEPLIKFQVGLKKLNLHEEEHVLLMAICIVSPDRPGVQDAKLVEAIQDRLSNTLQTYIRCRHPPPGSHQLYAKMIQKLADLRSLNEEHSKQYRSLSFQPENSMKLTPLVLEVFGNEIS
Nature of the assay: biochemical. As to conditions: ability to compete with [3H]-1,25(OH)2D3 for binding to the vitamin D receptor, full-length recombinant rat VDR.
Procedure: (§2) Full-length recombinant rat receptor was expressed in E. coli BL21 (DE3) Codon Plus RIL cells and purified to homogeneity using two different column chromatography systems. The first system was a nickel affinity resin that utilizes the C-terminal histidine tag on this protein. The protein that was eluted from this resin was further purified using ion exchange chromatography (S-Sepharose Fast Flow). Aliquots of the purified protein were quick frozen in liquid nitrogen and stored at −80° C. until use. For use in binding assays, the protein was diluted in TEDK50 (50 mM Tris, 1.5 mM EDTA, pH 7.4, 5 mM DTT, 150 mM KCl) with 0.1% Chaps detergent. The receptor protein and ligand concentration was optimized such that no more than 20% of the added radiolabeled ligand as bound to the receptor.
(§3) Radiolabeled and unlabeled ligands were added to 100 mcl of the diluted protein at a final ethanol concentration of ≦10%; mixed and incubated overnight on ice to reach binding equilibrium. The following day, 100 mcl of hydroxylapaptite slurry (50%) was added to each tube and mixed at 10-minute intervals for 30 minutes. The hydroxylapaptite was collected by centrifugation and then washed three times with Tris-EDTA buffer (50 mM Tris, 1.5 mM EDTA, pH 7.4) containing 0.5% Titron X-100. After the final wash, the pellets were transferred to scintillation vials containing 4 ml of Biosafe II scintillation cocktail, mixed and placed in a scintillation counter. Total binding was determined from the tubes containing only radiolabeled ligand.

Assay [6] addresses T1, full-length recombinant rat vitamin D receptor. As to conditions: for Ki: read-out: Ki, ability to compete with [3H]-1,25(OH)2D3 for binding to the vitamin D receptor, full-length recombinant rat VDR.
Procedure: as §2, §3
Setting [7] is: rats on low calcium diet (0.02%).
Setting [8] is: rats on low calcium diet (0.02%), 4 ip doses.
[9] abbreviates: compared with 1,25(OH)2D3 at 780 pmol/day.

For orientation: EC50 means the concentration giving half of the maximal effect. As a reminder, the Ki is the equilibrium dissociation constant of an inhibitor or competing ligand from its target. `CC(O)CCCC(C)C1CCC2C(=CC=C3CC(O)C(C)C(O)C3)CCCC21C` (single isomer, unassigned) [FD-1]: in assay [1], the EC50 amounted to 1 nM, the “logs less transcriptional activity than 1α,25-dihydroxyvitamin D3 in bone cells” value is on record as “about 1 log” and the “times less transcriptional activity than 1α,25-dihydroxyvitamin D3 in bone cells” value is recorded as “about 10 times”. Besides, in assay [2], the EC50 amounted to 6 nM. Moreover, the “mobilization of bone calcium at 21,060 pmol/day” value in the assay on vitamin D-deficient rats [3] (21,060 pmol/day for 4 consecutive days) is “did not result in mobilization of bone calcium”. Moreover, in the assay on vitamin D-deficient rats [3], the “activity in mobilizing calcium from bone / serum calcium levels” value (shortened to “activity … from bone / serum calcium levels”) is listed as “little, if any, activity” and the “times less potent than 1,25(OH)2D3 in bone (bone calcium mobilization)” value is “more than 40 times”. Besides, the “intestinal calcium transport at 21,060 pmol/day” value with vitamin D-deficient rats [4] (21,060 pmol/day for 4 consecutive days, compared with 1,25(OH)2D3 at 780 pmol/day) is recorded as “some intestinal calcium transport, but hot to the same extent as 1,25(OH)2D3”. Besides, in the assay on vitamin D-deficient rats [4] (setting [7]), the “intestinal calcium transport activity” value is “some, but very little, intestinal calcium transport activity”. Also, the “times less potent than 1,25(OH)2D3 in stimulating calcium transport in the gut” value with vitamin D-deficient rats [4] (setting [8]) was “approximately 40 times”. For the same compound, in assay [5], the Ki was 0.4 nM.

As for `CC1[C@H](O)CC(=C/C=C2\CCC[C@]3(C)[C@@H]([C@H](C)CCC[C@@H](C)O)CC[C@@H]23)C[C@H]1O` (stereo partly drawn) [DW-1, (20R,25R)-2β-methyl-19,26-dinor-1α,25-dihydroxyvitamin D3], in assay [1], the EC50 was determined as 20 nM, the “logs less transcriptional activity than 1α,25-dihydroxyvitamin D3 in bone cells” value is “about 2 log” and the “times less transcriptional activity than 1α,25-dihydroxyvitamin D3 in bone cells” value is listed as around 20 times. In assay [2], the EC50 is 60 nM and the “times less potent than 1,25(OH)2D3 on HL-60 differentiation” value is listed as “about 30 times”. Also, in the assay with vitamin D-deficient rats [3], the “mobilization of bone calcium at 7,020 pmol/day” value is reported as “did not result in mobilization of bone calcium”; the “mobilization of bone calcium at 35,100 pmol/day” value is reported as “without any substantial effect”; the “activity … from bone / serum calcium levels” value is “little, if any, activity”; the “times less potent than 1,25(OH)2D3 in bone (bone calcium mobilization)” value is listed as “more than 50 times”. Also, in the assay on vitamin D-deficient rats [4] (setting [9]), the “intestinal calcium transport at 35,100 pmol/day” value is given as “some intestinal calcium transport activity, but still not to the same extent as 1,25(OH)2D3”. Also, the Ki in assay [6] amounted to 1 nM.

As to `C=C1/C(=C\C=C2/CCC[C@]3(C)[C@@H]([C@H](C)CCCC(C)(C)O)CC[C@@H]23)C[C@@H](O)C[C@@H]1O` [1,25(OH)2D3, 1α,25-dihydroxyvitamin D3, reference compound], the EC50 in assay [1] was 0.2 nM; in assay [2], 2 nM. In addition, the “activity … from bone / serum calcium levels” value in the assay with vitamin D-deficient rats [3] was “increased serum calcium levels”. In addition, in the assay with vitamin D-deficient rats [4] (setting [7]), the “intestinal calcium transport activity” value is “significant activity”.

`CC(O)CCCC(C)C1CCC2C(=CC=C3CC(O)C(C)C(O)C3)CCCC21C` (single isomer, unassigned) [TH-1]: in assay [1], the “logs less transcriptional activity than 1α,25-dihydroxyvitamin D3 in bone cells” value is reported as “about 2 log” and the “times less transcriptional activity than 1α,25-dihydroxyvitamin D3 in bone cells” value is on record as around 20 times. In assay [2], the EC50 was determined as 70 nM and the “logs less potent than 1,25(OH)2D3 on HL-60 differentiation” value is given as 3 log. For the same compound, in the assay with vitamin D-deficient rats [3], the “mobilization of bone calcium at 35,100 pmol/day” value is recorded as “did not result in mobilization of bone calcium”; the “activity … from bone / serum calcium levels” value is listed as “little, if any, activity”; the “times less potent than 1,25(OH)2D3 in bone (bone calcium mobilization)” value was “more than 50 times”. Also, in the assay on vitamin D-deficient rats [4] (setting [9]), the “intestinal calcium transport at 35,100 pmol/day” value is “some intestinal calcium transport activity, but still not to the same extent as 1,25(OH)D3”. In assay [5], the Ki amounted to 5 nM.

Consider `CC(O)CCCC(C)C1CCC2C(=CC=C3CC(O)C(C)C(O)C3)CCCC21C` (single isomer, unassigned) [TA-2], for which, in assay [1], the EC50 is 0.08 nM. The “times more transcriptional activity than 1α,25-dihydroxyvitamin D3 in bone cells” value in assay [1] (more than 1,25(OH)2D3) was “about 4 times”. Further, in assay [2], the EC50 came out at 0.5 nM. Further, in the assay on vitamin D-deficient rats [3], the “mobilization of bone calcium at 7,020 pmol/day” value is on record as “did not result in mobilization of bone calcium”; the “mobilization of bone calcium at 35,100 pmol/day” value is recorded as “without any substantial effect”; the “activity … from bone / serum calcium levels” value is “little, if any, activity”; the “times less potent than 1,25(OH)2D3 in bone (bone calcium mobilization)” value is recorded as “more than 50 times”. Moreover, the “intestinal calcium transport at 7,020 pmol/day” value in the assay with vitamin D-deficient rats [4] (setting [9]) is on record as “some intestinal calcium transport activity, but still not to the same extent as 1,25(OH)2D3”. For the same compound, in the assay with vitamin D-deficient rats [4] (setting [8]), the “logs less potent than 1,25(OH)2D3 in the intestine” value was “approximately 1 log and one”. Also, the “binding to the receptor as compared to 1,25(OH)2D3” value in assay [6] is “bound equally well; also recorded: equivalent”.

On to `CC1[C@H](O)CC(=C/C=C2\CCC[C@]3(C)[C@@H]([C@@H](C)CCC[C@H](C)O)CC[C@@H]23)C[C@H]1O` (stereo partly drawn) [IB-1, (20S,25S)-2β-methyl-19,26-dinor-1α,25-dihydroxyvitamin D3], for which, in assay [1], the EC50 turned out to be 7 nM, the “logs less transcriptional activity than 1α,25-dihydroxyvitamin D3 in bone cells” value is on record as “about 3 log” and the “times less transcriptional activity than 1α,25-dihydroxyvitamin D3 in bone cells” value is on record as “approximately 30 times”. Also, in assay [2], the EC50 worked out at 20 nM; the “logs less potent than 1,25(OH)2D3 on HL-60 differentiation” value was “one and about one”; the “times less potent than 1,25(OH)2D3 on HL-60 differentiation” value is recorded as 10 times. In the assay on vitamin D-deficient rats [3], the “mobilization of bone calcium at 35,100 pmol/day” value is recorded as “did not result in mobilization of bone calcium”; the “activity … from bone / serum calcium levels” value was “little, if any, activity”; the “times less potent than 1,25(OH)2D3 in bone (bone calcium mobilization)” value is listed as “more than 50 times”. Further, in the assay on vitamin D-deficient rats [4] (setting [9]), the “intestinal calcium transport at 35,100 pmol/day” value is given as “some intestinal calcium transport activity; but still not to the same extent as 1,25(OH)2D3”. Moreover, in assay [6], the Ki was found to be 0.8 nM.

As for `CC1[C@H](O)CC(=C/C=C2\CCC[C@]3(C)[C@@H]([C@H](C)CCC[C@@H](C)O)CC[C@@H]23)C[C@H]1O` (stereo partly drawn) [MY-2, (20R,25R)-2α-methyl-19,26-dinor-1α,25-dihydroxyvitamin D3], in assay [1], the “transcriptional activity in bone cells as compared to 1α,25-dihydroxyvitamin D3” value is recorded as “equivalent to 1α,25-dihydroxyvitamin D3; also recorded: about the same transcriptional activity” and the EC50 is 0.4 nM. In assay [2], the “HL-60 differentiation potency as compared to 1,25(OH)2D3” value is listed as “as potent as 1,25(OH)2D3; also recorded: little difference” and the EC50 was found to be 2 nM. In the assay on vitamin D-deficient rats [3], the “mobilization of bone calcium at 7,020 pmol/day” value is recorded as “did not result in mobilization of bone calcium”; the “mobilization of bone calcium at 35,100 pmol/day” value is given as “without any substantial effect”; the “activity … from bone / serum calcium levels” value was “little, if any, activity”; the “times less potent than 1,25(OH)2D3 in bone (bone calcium mobilization)” value is listed as “more than 50 times”. In the assay with vitamin D-deficient rats [4] (setting [9]), the “intestinal calcium transport at 7,020 pmol/day” value is “some intestinal calcium transport activity, but still not to the same extent as 1,25(OH)2D3”. In assay [6], the “binding to the receptor as compared to 1,25(OH)2D3” value is listed as “bound equally well; also recorded: equivalent” and the Ki amounted to 0.2 nM.
